Experimental data published in patent US9426996B2, “Use of benzoxaboroles as volatile antimicrobial agents on meats, plants, or plant parts” (AgroFresh Inc., priority 2013, dated 2016).

Tests used:
Alternaria alternata = experiment: combination treatment with 1-MCP on broccoli; format: in vivo; design: scale not given here; details: 11 C.
Botrytis cinerea [1] = experiment: in vivo volatile bioassay using inoculated white carnations
Protocol: In order to assess the in vivo activity of volatile antimicrobial Compound A on controlling Botrytis cinerea on ornamental flowers, a volatile bioassay is developed using white carnations.
Five carnations are placed in an 800 mL jar containing 200 mL of a common commercial flower preservative. Five jars are then placed in a 117 L Rubbermaid storage box (Cat #2244). The petals are uniformly spray-inoculated with 5 mL of 1×10^5 spores/mL of Botrytis cinerea suspension. The tub is closed tightly. For treatment application, Compound A is dissolved in an aqueous 1,2-propylene glycol solution (3:1) and 5 mL of the solution is volatilized into the container using an ES-100-H SmartFog system (Reno, Nev.) through a ½″ side port that is sealed immediately after the application. The flowers are incubated for 3 days at 21° C. After storage, the flowers are evaluated for incidence based on presence of disease on flower petals relative to untreated control flowers for up to 8 days at 21° C., with results summarized in Table 12.

Penicillium expansum = experiment: in vivo volatile bioassay using apple; details: 50 mg/L; for Sporulation (mm) / Rot (mm): apples
Protocol: In order to assess the in vivo activity of volatile antimicrobial Compound A in fruit, a volatile bioassay is developed using apple. Two apples are placed inside a PET clamshell. Three fresh wounds per apple are inoculated with 30 μL of 1×10^6 per mL Penicillium expansum spore suspension. The clamshells are placed inside a 10.8-cup SnapWare airtight container (Model #109842). A 42.5 mm Whatman #1 filter disk (Cat. No. 1001-042) is placed on a watch glass. Compound A is dissolved in acetone and added to the disks in a manner to produce a final headspace concentration of 50 mg/L. The acetone is permitted to evaporate for five minutes. The containers are then closed with the lids, and placed for three days at 21° C. After storage, fruits are evaluated for disease incidence (mm diameter of the rot) and pathogen sporulation (mm diameter) on the surface of the fruits for an additional three days at 21° C., with results summarized in Table 19.

Botrytis cinerea [2] = experiment: in vivo volatile bioassay using strawberry
Protocol: In order to assess the in vivo activity of volatile antimicrobial compounds, a volatile bioassay is developed using strawberry. Two fruit are placed inside a 240 mL jar, with the calyx facing downwards. […] The acetone is permitted to evaporate for 5 minutes. The jars are then capped with the lids containing the fungicide, and placed for 5 days at 21° C. After storage, fruit are evaluated for incidence and severity of disease and appearance of phytotoxicity.

## OB1OCc2cc(F)ccc21 [Compound A]
Alternaria alternata; 0.4 mg/L
  Color Score: 1.75
  Severity: 0.00
Alternaria alternata; 2 mg/L
  Color Score: 2.11
  Severity: 0.00
Botrytis cinerea [1]; 0.04 mg/L, Day 0
  Disease incidence (%) on Petals: 0%
Botrytis cinerea [1]; 0.04 mg/L, Day 1
  Disease incidence (%) on Petals: 0%
Botrytis cinerea [1]; 0.04 mg/L, Day 2
  Disease incidence (%) on Petals: 16%
Botrytis cinerea [1]; 0.04 mg/L, Day 3
  Disease incidence (%) on Petals: 40%
Botrytis cinerea [1]; 0.04 mg/L, Day 8
  Disease incidence (%) on Petals: 92%
Botrytis cinerea [1]; 0.2 mg/L, Day 0
  Disease incidence (%) on Petals: 0%
Botrytis cinerea [1]; 0.2 mg/L, Day 1
  Disease incidence (%) on Petals: 8%
Botrytis cinerea [1]; 0.2 mg/L, Day 2
  Disease incidence (%) on Petals: 20%
Botrytis cinerea [1]; 0.2 mg/L, Day 3
  Disease incidence (%) on Petals: 16%
Botrytis cinerea [1]; 0.2 mg/L, Day 8
  Disease incidence (%) on Petals: 36%
Botrytis cinerea [1]; 1 mg/L, Day 0
  Disease incidence (%) on Petals: 0%
Botrytis cinerea [1]; 1 mg/L, Day 1
  Disease incidence (%) on Petals: 0%
Botrytis cinerea [1]; 1 mg/L, Day 2
  Disease incidence (%) on Petals: 0%
Botrytis cinerea [1]; 1 mg/L, Day 3
  Disease incidence (%) on Petals: 4%
Botrytis cinerea [1]; 1 mg/L, Day 8
  Disease incidence (%) on Petals: 16%
Penicillium expansum; up to 3 days after treatment
  in vivo volatile antimicrobial control of P. expansum mold of apple: 100%
Penicillium expansum; Day 0
  Sporulation (mm): 0 mm
Penicillium expansum; Day 1
  Rot (mm): 0 mm
  Sporulation (mm): 0 mm
Penicillium expansum; Day 2
  Rot (mm): 0 mm
  Sporulation (mm): 0 mm
Penicillium expansum; Day 3
  Rot (mm): 0 mm
  Sporulation (mm): 0 mm
Botrytis cinerea [2]; 0.005 mg/disk, 5 days at 21° C.
  Percent (%) Incidence of Botrytis cinerea on Strawberry (in vivo): 75%
Botrytis cinerea [2]; 0.01 mg/disk, 5 days at 21° C.
  Percent (%) Incidence of Botrytis cinerea on Strawberry (in vivo): 100%
Botrytis cinerea [2]; 0.02 mg/disk, 5 days at 21° C.
  Percent (%) Incidence of Botrytis cinerea on Strawberry (in vivo): 50%
Botrytis cinerea [2]; 0.04 mg/disk, 5 days at 21° C.
  Percent (%) Incidence of Botrytis cinerea on Strawberry (in vivo): 75%
Botrytis cinerea [2]; 0.08 mg/disk, 5 days at 21° C.
  Percent (%) Incidence of Botrytis cinerea on Strawberry (in vivo): 0%
Botrytis cinerea [2]; 0.16 mg/disk, 5 days at 21° C.
  Percent (%) Incidence of Botrytis cinerea on Strawberry (in vivo): 0%
Botrytis cinerea [2]; 0.32 mg/disk, 5 days at 21° C.
  Percent (%) Incidence of Botrytis cinerea on Strawberry (in vivo): 0%
Botrytis cinerea [2]; 0.64 mg/disk, 5 days at 21° C.
  Percent (%) Incidence of Botrytis cinerea on Strawberry (in vivo): 0%
Botrytis cinerea [2]; 1.25 mg/disk, 5 days at 21° C.
  Percent (%) Incidence of Botrytis cinerea on Strawberry (in vivo): 0%
Botrytis cinerea [2]; 2.5 mg/disk, 5 days at 21° C.
  Percent (%) Incidence of Botrytis cinerea on Strawberry (in vivo): 0%
Botrytis cinerea [2]; strawberry, 5 days at 21° C.
  lowest rate with 100% control of Botrytis cinerea: 0.16 mg/disk
Botrytis cinerea [2]; strawberry, any of the rates evaluated (2.5 to 0.005 mg/disk)
  appearance of phytotoxicity: no evidence of phytotoxicity
